Experimental data: patent publication US9028845B2, “Chimeric immunomodulatory compounds and methods of using the same-IV” (Dynavax Technologies Corporation, priority 2001, dated 2015)

Experiments:
human PBMCs = experiment: Human PBMC cytokine response assay (IFN-γ and IFN-α in cell-free medium by ELISA), with or without cPLGA; format: cell-based; conditions: for immunomodulatory activity (IFN-γ / IFN-α secretion), in words: used alone (no cPLGA);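 for IFN-α (pg/ml) mean: 20 µg/mL compound for 24 hours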;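 for IFN-γ (pg/ml) mean: 20 µg/mL compound for 24 hours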
mouse splenocytes = experiment: Mouse splenocyte cytokine secretion (IL-6, IL-12, IFN by ELISA); format: cell-based, BALB/c mice; design: IFN: unit not given beside the values; conditions: 24 h
Procedure: Polynucleotides and chimeric compounds were tested for immunostimulatory activity on mouse splenocytes. Immunostimulation was assessed by measurement of cytokine secretion into the culture media. Cytokine levels in the culture supernatant were determined by enzyme-linked immunosorbent assay (ELISA) tests.
Cells were isolated and prepared using standard techniques. Spleens of 8 to 20 week-old BALB/c mice were harvested and the splenocytes isolated using standard teasing and treatment with ACK lysing buffer from BioWhittaker, Inc. Four spleens were pooled in this experiment. Isolated cells were washed in RPMI 1640 media supplemented with 2% heat-inactivated fetal calf serum (FCS), 50 μM 2-mercaptoethanol, 1% penicillin-streptomycin, and 2 mM L-glutamine and resuspended at approximately […] in 10% FCS/RPMI (RPMI 1640 media with 10% heat-inactivated FCS, 50 μM 2-mercaptoethanol, 1% penicillin-streptomycin, and 2 mM L-glutamine).
Cell cultures were set up in triplicate with approximately 7×10^5 cells/well in a 96-well flat microtiter plate in 100 μl 10% FCS/RPMI with the cells allowed to rest for at lest 1 hour after plating. The indicated test compounds were incubated (at the indicated concentrations) for 24 hours at 37° C. Cell supernatants were harvested and frozen at −80° C. Cytokine production by the cells was determined by ELISAs, as shown in 19.

CD19+ B cells = experiment: Human B cell proliferation assay (3H-thymidine incorporation); conditions: 2 μg/ml; for cpm1 / cpm2 / cpm3 / mean cpm / mean of both: B cells
Procedure: Purified human B cells from 2 donors were stimulated with 5 μg/ml P-6 or CIC for 96 h. Proliferation was assessed by ^3H-thymidine incorporation.
A CIC is considered to induce “little” human B cell proliferation if B cell proliferation in the presence of the CIC is between greater than 15 to about 30% of P-6.
Human PBMCs were isolated from heparanized blood from two normal subjects. Some PBMCs were held in reserve while the remainder was incubated with CD19+ MACS beads (Miltenyi Biotec). These cells were then passed through a magnet, separating the CD19+ B cells through positive selection. […] B cells were then cultured at 1×10^5/200 μl/well in 96-well round-bottomed plates. In some cases, PBMCs were also cultured, but at 2×10^5/200 μl/well. Cells were stimulated in triplicate with 2 μg/ml polynucleotide or CIC. The culture period was 48 hours at 37° C. At the end of the culture period, the plates were pulsed with ^3H-thymidine, 1 μCi/well, and incubated for an additional 8 hours. Then the plates were harvested using standard liquid scintillation techniques and data was collected in counts per minutes (cpm).

PBMCs = experiment: Human PBMC proliferation assay (3H-thymidine incorporation); format: cell-based; conditions: Experiment A; for mean cpm: 2 μg/ml
[1] = Donor 5, 20 μg/ml (mixtures: 20 μg/ml total), 24 h
[2] = Donor 6, 20 μg/ml (mixtures: 20 μg/ml total), 24 h
[3] = mean of Donors 1-2, 20 μg/ml, 24 h
[4] = mean of Donors 5-6, 20 μg/ml (mixtures: 20 μg/ml total), 24 h
[5] = mean of Donors 7-8, 20 μg/ml, 24 h
[6] = donor 28066, 20 ug/ml, 24 h, + PLGA = premixed with 100 μg/ml cPLGA
[7] = donor 28067, 20 ug/ml, 24 h, + PLGA = premixed with 100 μg/ml cPLGA
[8] = donor 28068, 20 ug/ml, 24 h, + PLGA = premixed with 100 μg/ml cPLGA
[9] = mean of donors 28065-28068, 20 ug/ml, 24 h, + PLGA = premixed with 100 μg/ml cPLGA

Substance: 5′-TCGTCG-3′- C3-5′-ACGTTCG-3′-C3-5′-AGATGAT-3′ [Compound C-11]
- IFN-α (pg/ml) Donor 1 (human PBMCs; Donor 1, 20 μg/ml, 24 h): 119 pg/mL
- IFN-γ (pg/ml) Donor 1 (human PBMCs; Donor 1, 20 μg/ml, 24 h): 2308 pg/mL
- IFN-α (pg/ml) Donor 2 (human PBMCs; Donor 2, 20 μg/ml, 24 h): 0 pg/mL
- IFN-γ (pg/ml) Donor 2 (human PBMCs; Donor 2, 20 μg/ml, 24 h): 270 pg/mL
- IFN-α (pg/ml) Donor 5 (human PBMCs; [1]): 76 pg/mL
- IFN-γ (pg/ml) Donor 5 (human PBMCs; [1]): 25 pg/mL
- IFN-α (pg/ml) Donor 6 (human PBMCs; [2]): 175 pg/mL
- IFN-γ (pg/ml) Donor 6 (human PBMCs; [2]): 792 pg/mL
- IFN-α (pg/ml) Donor 7 (human PBMCs; Donor 7, 20 μg/ml, 24 h): 6 pg/mL
- IFN-γ (pg/ml) Donor 7 (human PBMCs; Donor 7, 20 μg/ml, 24 h): 5 pg/mL
- IFN-α (pg/ml) Donor 8 (human PBMCs; Donor 8, 20 μg/ml, 24 h): 56 pg/mL
- IFN-γ (pg/ml) Donor 8 (human PBMCs; Donor 8, 20 μg/ml, 24 h): 419 pg/mL
- IFN-α (pg/ml) mean (human PBMCs; [3]): 59 pg/mL
- IFN-γ (pg/ml) mean (human PBMCs; [3]): 1289 pg/mL
- IFN-α (pg/ml) mean (human PBMCs; [4]): 126 pg/mL
- IFN-γ (pg/ml) mean (human PBMCs; [4]): 409 pg/mL
- IFN-α (pg/ml) mean (human PBMCs; [5]): 31 pg/mL
- IFN-γ (pg/ml) mean (human PBMCs; [5]): 212 pg/mL
- immunomodulatory activity (IFN-γ / IFN-α secretion), in words (human PBMCs): did have immunomodulatory activity
- IFN (mouse splenocytes; dose 0.1 μg/ml): 960
- IL-6 (mouse splenocytes; dose 0.1 μg/ml): 458
- IL-12 (mouse splenocytes; dose 0.1 μg/ml): 3359
- IFN (mouse splenocytes; dose 1.0 μg/ml): 3220
- IL-6 (mouse splenocytes; dose 1.0 μg/ml): 11814
- IL-12 (mouse splenocytes; dose 1.0 μg/ml): 4914
- IFN (mouse splenocytes; dose 5.0 μg/ml): 3342
- IL-6 (mouse splenocytes; dose 5.0 μg/ml): 10098
- IL-12 (mouse splenocytes; dose 5.0 μg/ml): 4279
- cpm1 (CD19+ B cells; donor 121, Experiment B): 30367 cpm
- cpm2 (CD19+ B cells; donor 121, Experiment B): 30412 cpm
- cpm3 (CD19+ B cells; donor 121, Experiment B): 18528 cpm
- mean cpm (CD19+ B cells; donor 121 mean, Experiment B): 26436 cpm
- cpm1 (CD19+ B cells; donor 194, Experiment B): 16967 cpm
- cpm2 (CD19+ B cells; donor 194, Experiment B): 20898 cpm
- cpm3 (CD19+ B cells; donor 194, Experiment B): 11253 cpm
- mean cpm (CD19+ B cells; donor 194 mean, Experiment B): 16373 cpm
- mean of both (CD19+ B cells; mean of donors 121 and 194, Experiment B): 21404 cpm

Substance: 5′-TGCTGC-3′-HEG-5′-AGCTTGC-3′-HEG-5′-AGATGAT-3′ [Compound M-1, reference compound]
- IFN-α (human PBMCs; Table 10, donor 28042): 0 pg/mL
- IFN-γ (human PBMCs; Table 10, donor 28042): 45 pg/mL
- IFN-α (human PBMCs; Table 10, donor 28043): 0 pg/mL
- IFN-γ (human PBMCs; Table 10, donor 28043): 29 pg/mL
- IFN-α (human PBMCs; Table 10, donor 28044): 13 pg/mL
- IFN-γ (human PBMCs; Table 10, donor 28044): 7 pg/mL
- IFN-α (human PBMCs; Table 10, donor 28045): 2 pg/mL
- IFN-γ (human PBMCs; Table 10, donor 28045): 3 pg/mL
- IFN-α mean (human PBMCs; Table 10, mean of donors): 4 pg/mL
- IFN-γ mean (human PBMCs; Table 10, mean of donors): 21 pg/mL
- IFN-γ (pg/ml) 28065 (human PBMCs; donor 28065 (high background), 20 ug/ml, 24 h, + PLGA = premixed with 100 μg/ml cPLGA, 1000 = outside assay limits): 157 pg/mL
- IFN-α (pg/ml) 28065 (human PBMCs; donor 28065, 20 ug/ml, 24 h, + PLGA = premixed with 100 μg/ml cPLGA): 0 pg/mL
- IFN-α (pg/ml) 28066 (human PBMCs; [6]): 0 pg/mL
- IFN-γ (pg/ml) 28066 (human PBMCs; [6]): 1 pg/mL
- IFN-α (pg/ml) 28067 (human PBMCs; [7]): 3 pg/mL
- IFN-γ (pg/ml) 28067 (human PBMCs; [7]): 40 pg/mL
- IFN-α (pg/ml) 28068 (human PBMCs; [8]): 0 pg/mL
- IFN-γ (pg/ml) 28068 (human PBMCs; [8]): 2 pg/mL
- IFN-α (pg/ml) mean (human PBMCs; [9]): 1 pg/mL
- IFN-γ (pg/ml) mean (human PBMCs; [9]): 50 pg/mL
- immunomodulatory activity (IFN-γ / IFN-α secretion), in words (human PBMCs): did not show activity
- cpm1 (PBMCs; Donor 146, 2 μg/ml): 8753 cpm
- cpm2 (PBMCs; Donor 146, 2 μg/ml): 5203 cpm
- cpm3 (PBMCs; Donor 146, 2 μg/ml): 4496 cpm
- mean cpm (PBMCs; Donor 146 mean): 6151 cpm
- cpm1 (PBMCs; Donor 147, 2 μg/ml): 1034 cpm
- cpm2 (PBMCs; Donor 147, 2 μg/ml): 3298 cpm
- cpm3 (PBMCs; Donor 147, 2 μg/ml): 1674 cpm
- mean cpm (PBMCs; Donor 147 mean): 2002 cpm
- mean of both (PBMCs; mean of Donors 146 and 147, 2 μg/ml): 4076 cpm
- B cell proliferation, in words (CD19+ B cells; 48 h plus 8 h 3H-thymidine pulse): little to no B cell proliferation
- cpm1 (CD19+ B cells; Donor 146, Experiment A): 1514 cpm
- cpm2 (CD19+ B cells; Donor 146, Experiment A): 2815 cpm
- cpm3 (CD19+ B cells; Donor 146, Experiment A): 1173 cpm
- mean cpm (CD19+ B cells; Donor 146 mean, Experiment A): 1834 cpm
- cpm1 (CD19+ B cells; Donor 147, Experiment A): 1679 cpm
- cpm2 (CD19+ B cells; Donor 147, Experiment A): 1667 cpm
- cpm3 (CD19+ B cells; Donor 147, Experiment A): 1436 cpm
- mean cpm (CD19+ B cells; Donor 147 mean, Experiment A): 1594 cpm
- mean of both (CD19+ B cells; mean of Donors 146 and 147, Experiment A): 1714 cpm
